Laboratory results as given in ChEMBL document CHEMBL3600282, “Four new ginsenosides from red ginseng with inhibitory activity on melanogenesis in melanoma cells” (Bioorg Med Chem Lett, 2015).
Calls of active or inactive are those of the source. The calls are words filed in the database; no cut-off is given here.

How the values were obtained:
B16 [1] = assay: Inhibition of alpha-MSH-induced melanogenesis in mouse B16 cells assessed as reduction of melanin content at 200 uM after 48 hrs; format: functional, cell-based
[2] = Cytotoxicity against mouse B16 cells assessed as cell viability up to 100 uM after 48 hrs by MTT assay; format: cell-based; conditions: read-out: Activity
B16 [3] = assay: Inhibition of alpha-MSH-induced melanogenesis in mouse B16 cells assessed as reduction of melanin content at 25 to 100 uM after 48 hrs; format: functional, cell-based
B16 [4] = assay: Inhibition of alpha-MSH-induced melanogenesis in mouse B16 cells assessed as reduction of melanin content after 48 hrs; format: functional, cell-based
B16 [5] = assay: Inhibition of alpha-MSH-induced melanogenesis in mouse B16 cells assessed as reduction of melanin content at 100 uM after 48 hrs; format: functional, cell-based
[6] = molecular target: T1, Tyrosinase (Mus musculus) (UniProt P11344); assay: Inhibition of alpha-MSH-induced tyrosinase activity in mouse B16 cells assessed as reduction of melanin content using L-DOPA as substrate after 2 hrs; format: cell-based
T1 sequence (whole entry): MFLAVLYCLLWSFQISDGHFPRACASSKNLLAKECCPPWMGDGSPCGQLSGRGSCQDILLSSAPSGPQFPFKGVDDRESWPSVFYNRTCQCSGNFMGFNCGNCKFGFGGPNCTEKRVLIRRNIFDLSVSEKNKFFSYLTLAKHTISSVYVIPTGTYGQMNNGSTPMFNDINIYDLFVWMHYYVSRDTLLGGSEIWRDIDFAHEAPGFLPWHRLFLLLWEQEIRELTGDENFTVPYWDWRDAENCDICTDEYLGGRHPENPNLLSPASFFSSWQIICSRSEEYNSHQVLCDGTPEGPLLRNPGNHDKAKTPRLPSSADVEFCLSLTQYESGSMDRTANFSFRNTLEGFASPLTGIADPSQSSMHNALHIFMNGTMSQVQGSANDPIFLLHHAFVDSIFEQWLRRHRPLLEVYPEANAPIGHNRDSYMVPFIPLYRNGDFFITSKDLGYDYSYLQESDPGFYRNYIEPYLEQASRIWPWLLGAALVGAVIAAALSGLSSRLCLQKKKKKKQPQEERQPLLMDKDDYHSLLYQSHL

| inhibition [6] | SMILES | inhibition (B16 [1]) | viability at 48 h [2] [%] | inhibition (B16 [3]) | inhibition (B16 [4]) | inhibition (B16 [5]) |
| --- | --- | --- | --- | --- | --- | --- |
|  | OC[C@H]1O[C@@H](Oc2ccc(O)cc2)[C@H](O)[C@@H](O)[C@@H]1O | Active |  |  |  |  |
|  | CCCCOC(=O)[C@H]1O[C@@H](O[C@H]2CC[C@]3(C)[C@H]4CC=C5[C@@H]6CC(C)(C)CC[C@]6(C(=O)O[C@@H]6O[C@H](CO)[C@@H](O)[C@H](O)[C@H]6O)CC[C@@]5(C)[C@]4(C)CC[C@H]3C2(C)C)[C@H](O[C@@H]2O[C@H](CO)[C@@H](O)[C@H](O)[C@H]2O)[C@@H](O)[C@@H]1O |  | 95 | inactive |  |  |
| Dose-dependent effect | CC(=O)OC[C@H]1O[C@@H](O[C@H]2[C@H](O[C@H]3CC[C@]4(C)[C@H]5C[C@@H](O)[C@@H]6[C@@H](/C(C)=C\CC=C(C)C)CC[C@@]6(C)[C@]5(C)CC[C@H]4C3(C)C)O[C@H](CO)[C@@H](O)[C@@H]2O)[C@H](O)[C@@H](O)[C@@H]1O |  | 95 |  | Dose-dependent effect | Active |
| Dose-dependent effect | COC(/C=C(\C)[C@H]1CC[C@]2(C)[C@@H]1[C@H](O)C[C@@H]1[C@@]3(C)CC[C@H](O[C@@H]4O[C@H](CO)[C@@H](O)[C@H](O)[C@H]4O[C@@H]4O[C@H](CO)[C@@H](O)[C@H](O)[C@H]4O)C(C)(C)[C@@H]3CC[C@]12C)C1OC1(C)C (stereo partly drawn) |  | 95 |  | Dose-dependent effect | Active |
|  | CC(C)=CCC[C@](C)(O)[C@H]1CC[C@]2(C)[C@@H]1[C@H](O)C[C@@H]1[C@@]3(C)CC[C@H](O)C(C)(C)[C@@H]3[C@@H](O[C@@H]3O[C@H](CO)[C@@H](O[C@H]4O[C@H](CO)[C@@H](O)[C@H](O)[C@H]4O)[C@H](O)[C@H]3O)C[C@]12C |  | 95 | inactive |  |  |
